In patent US10995068B2, “Synthetic sphingolipid-like molecules, drugs, methods of their synthesis and methods of treatment” (The Regents of the University of California, priority 2015, dated 2021):

What was measured:
[1] = test system: fusion of LC3-positive autophagosomes with LAMP1-positive lysosomes; experiment: Autophagosome-lysosome fusion in chloroquine-treated cells; type: cell-based
Experimental: It is known in the art that cells adapt to nutrient stress by increasing autophagic flux. However, autophagosome-lysosome fusion reactions depend upon […] release via TRPML1 channels that are activated by PI(3,5)P2. […] Chloroquine (CQ) is molecule that stabilizes the transient autophagosomes. Cells were treated with CG to stabilize autophagolysosomes and subsequently treated with FTY720, SH-BC-893, or YM201636. […] Phosphatidylinositol 5-Phosphate (PI(5)P) is essential for autophagosome biogenesis upon glucose depletion. PI(5)P is produced by dephosphorylating PI(3,5)P2, and thus PI(5)P might also be mis-localized in SH-BC-893-treated cells, and thus also contributing to the disruption of autophagosome formation. […] Thus, SH-BC-893 inhibited both autophagosome formation and degradation. As a control, Vac14 over-expression limited vacuolation (FIGS. 55F, 61F, and 62B) and rescued autophagic flux in SH-BC-893-treated cells (FIGS. 61A, 61B, 61D and 61E).
Light Microscopy: Brightfield and epifluorescence microscopy were conducted using a Nikon TE2000-S fluorescence microscope; confocal microscopy was performed on a Zeiss LSM780 confocal microscope or Nikon Eclipse Ti spinning disk confocal microscope. […] Co-localization was determined using JACoP plugin in ImageJ software. Macropinocytosis was measured after 16 h incubation in serum-free DMEM. p53−/−; LSL-K-RasG12D MEFs before (LSL) or after (KRasG12D) introduction of Cre were serum starved for 16 h and then treated with macropinocytosis inhibitor 5-(N-ethyl-N-isopropyl) amiloride (EIPA, 75 μM) for 1 h or SH-BC-893 for 6 h. Oregon Green dextran (Life Technologies, cat #D7173) (1 mg/mL) and Lysotracker Red (Life Technologies, cat #L-7525) (1:2,000 dilution) were added for 30 min and live cells were evaluated on the spinning disc confocal microscope. […]

[2] = Heart rate by ECG telemetry in mice; type: in vivo, C57BL/6 mice; conditions: for heart rate in telemetry tracing: after injection, saline approximately 600 BPM
From the text: In more exemplary embodiments, compounds 5 and 5-P were further examined for their ability to activate multiple S1P receptors in vivo. In particular, mouse heart rate and lymphocyte sequestration were examined. Mouse heart rate decreases causing bradycardia when S1P receptor 3 is activated while in humans this effect may be mediated by S1P receptor 1. In both mice and humans, lymphocytes are sequestered when the S1P receptor 1 is activated.
As shown in the telemetry readings detailed in FIG. 36, FTY720 (B) slowed heart rate comparison to compound 5 (C) and the control (A, saline). As shown in A, after administering saline, normal sinus rhythm with clearly discernible P waves, representing atrial depolarization, and QRS complexes, representing ventricular depolarization, at regular intervals is observed. The heart rate in this tracing was approximately 600 beats per minute (BPM). […] Finally, as shown in C, for exemplary embodiment compound 5, similar to the saline injection, normal sinus rhythm with well-defined and consistent P waves and QRS complexes were present following injection. The heart rate in this tracing was approximately 600 BPM, similar to saline.
Heart rate: C57BL/6 mice are surgically implanted with DSI TA-ETAF20 electrocardiographic telemetry devices (Data Sciences International, St. Paul, Minn.). The electrocardiographic data is collected and recorded using the PhysioTel telemetry system and Dataquest A.R.T 4.0 software (DSI). The telemetry device is implanted in the mouse's abdominal cavity with biopotential leads sutured in place in the chest wall. Buprenorphine (0.05 mg/kg) is administered every 12 h after surgery for pain management and enrofloxacin (3 mg/kg) is administered 2× per day for 7 days post-surgery as an antibiotic. Mice are permitted two weeks recovery after surgery before initiation of baseline telemetry recordings. Heart rate is calculated from ECG data taken in the freely moving, conscious mice. Mice are divided into two groups of 3 mice and treated intraperitoneally with a single dose of vehicle (0.9% saline or 20% acidified DMSO in 0.9% saline), 10 mg/kg FTY720, FTY720-Phosphate, 5, or 5-P and heart rate monitored continuously for 10 h. Mice are rested for two weeks at which point the experiment is repeated with the mice assigned to the alternate group. These experiments are performed in accordance with all national or local guidelines and regulations and were approved by the UCI Institutional Animal Care and Use Committee.

[3] = test system: 4F2 cell-surface antigen heavy chain (4F2hc); experiment: Surface 4F2hc nutrient transporter expression; type: cell-based, human; conditions: treatment at IC50 and at twice this dose, 6 h; efficacy similar to FTY720
From the text: The broad activity of the embodiments of the inventions described herein is consistent with a bioenergetic mechanism of action against cancer cells that includes nutrient transporter down-regulation, as described supra. Thus, to directly examine the constrained pyrrolidine sphingolipid-like molecules on nutrient transport, the surface-levels of the amino acid transporter associated protein 4F2 cell-surface antigen heavy chain (4F2hc) was examined following treatment with several analogues at their IC50 and at twice this dose.
Nutrient transporter expression: Surface 4F2hc expression is measured at 6 h using phycoerythrin (PE)-conjugated mouse anti-human 4F2hc antibody (BD Pharmingen, cat #556077); analysis is restricted to viable cells. PE conjugated Mouse IgG1, k (cat #555749, BD Pharmingen) is used as an isotype control. Cells are analyzed on a BD LSR II flow cytometer and with FlowJo software (Treestar).

| Compound | fusion of LC3-positive autophagosomes with LAMP1-positive lysosomes [1] | heart rate in telemetry tracing [2] | effect on heart rate ([2]; single dose 10 mg/kg intraperitoneally, compared to saline controls) | 4F2hc surface levels [3] | decrease of heart rate ([2]; single dose 10 mg/kg intraperitoneally, compared to saline vehicle) |
| --- | --- | --- | --- | --- | --- |
| CCCCCCCCc1ccc([C@H]2CCN[C@@H]2CO)cc1.Cl [Compound 5, (2S,3R)-2-(hydroxymethyl)-3-(4-octylphenyl)Pyrrolidinium chloride] | reduced fusion | approximately 600 BPM | no significant effect | reduced 4F2hc surface levels |  |
| CCCCCCCCc1ccc([C@@H]2CCN[C@H]2CO)cc1.Cl [Compound 6] |  |  |  | reduced 4F2hc surface levels |  |
| CCCCCCCCc1ccc(CCC(N)(CO)CO)cc1.Cl [FTY720, 2-Amino-2-[2-(4-octylphenyl)ethyl]propane 1,3-diol hydrochloride, reference compound] | reduced fusion | approximately 200 BPM |  |  | approximately 50% |
